Data taken from PMC4718952, “A simple nonradioactive method for the determination of the binding affinities of antibodies induced by hapten bioconjugates for drugs of abuse” (Analytical and Bioanalytical Chemistry, 2015).

Key:
[1] = Stability of heroin and its metabolites in dilute mouse sera; conditions: 24 h
[2] = in humans, Fig. 1a; cited from earlier work
[3] = Stability of heroin and its metabolites in DPBS without sera; assay type: physicochemical
plasma proteins [4] = assay: Binding of D3-tracers to plasma proteins in dilute week 0 (preimmunized) sera by ED; assay type: in vitro ADME, mouse; conditions: ≥1:400 dilution of week 0 (preimmunized) sera
Procedure: Week 0 and week 9 sera were considered as negative and anti-hapten sera, respectively. Anti-hapten sera solutions were prepared by diluting the sera in DPBS (1:400, 1:800, or 1:600). Dialysis buffer was prepared by diluting the corresponding negative sera in DPBS (1:400, 1:800, or 1:600). Competitive inhibitors with different initial concentrations were prepared in the dialysis buffer. For the test samples, anti-hapten sera/D3-tracer was run against the negative sera/inhibitors at the same sera dilution. […] For negative controls, negative sera/D3-tracer was run against the negative sera at the same sera dilution.

plasma proteins [5] = conditions: neat plasma/sera; cited from earlier work

In the case of 6-acetylmorphine [6-AM], the “hydrolysis of 6-AM in dilute sera” value ([1]; normal mouse sera, ≥1:200 dilutions, 4 °C) is given as “not observed”, the t1/2 [2] is given as 22 to 26 min and the “degradation in the absence of sera” value ([3]; DPBS pH 7.4, 4 °C) is given as “No degradation”.
For [2H]C([2H])([2H])N1CCC23c4c5ccc(O)c4OC2C(OC(C)=O)C=CC3C1C5 (stereo not shown) [D3-6-AM], the “binding to the plasma proteins” value (plasma proteins [4]) was ~0%.
For [2H]C([2H])([2H])N1CCC23c4c5ccc(O)c4OC2C(O)C=CC3C1C5 (stereo not shown) [D3-morphine], the “binding to the plasma proteins” value (plasma proteins [4]) was ~0%.
In the case of CC(=O)Oc1ccc2c3c1O[C@H]1[C@@H](OC(C)=O)C=C[C@H]4[C@@H](C2)N(C)CC[C@@]341 [heroin], the plasma binding (plasma proteins [5]) is listed as ~35%, the “amount of intact heroin” value ([1]; 1:400 sera dilution with iso-OMPA and BNPP) is listed as ≥ 80% and the “hydrolysis of heroin in dilute sera” value ([1]; normal mouse sera, all dilutions (1:25-1:400), 4 °C) is listed as “extensive hydrolysis”. The t1/2 [2] was 3 to 4 min, the partial heroin hydrolysis ([3]; absence of sera, DPBS pH 7.4, 4 °C) was ~20% and the “% heroin remained intact” value ([3]; after 24 h in DPBS (− Sera), pH 7.4, 4 °C) was 79.9 ± 2.71%.
With CN1CC[C@]23c4c5ccc(O)c4O[C@H]2[C@@H](O)C=C[C@H]3[C@H]1C5 [morphine] the “degradation of morphine in dilute sera” value ([1]; normal mouse sera, ≥1:100 dilutions, 4 °C) was “not observed” and the “degradation in the absence of sera” value ([3]; DPBS pH 7.4, 4 °C) was “No degradation”.
